Common to all, as to format: cell-based
One test concerns THP-1. Nature of the test: CellTiterGlo viability assay, THP-1. The note with it: Homo sapiens, read-out: IC50 THP-1. On the procedure: (§1) In vitro viability assay were performed to assess the effects of compounds on cell viability in selected cell lines over ˜72 hrs using the CellTiterGlo (CTG, Promega-G7573) assay. The tests were performed in duplicates with treatment of compounds at 9 points, 3.16 folds titration in 96 well plates over ˜72 hrs. The compound starting concentrations were 198 μM. Cell viability assay using CellTiterGlo in 96-well plate were performed. Compound treatment 72 hrs, standard growth conditions, duplicates. Compounds were dissolved to 40 mM with thawed […]. Compounds were serially diluted at 3.16 fold in thawed DMSO, and warmed to 37° C. before being dissolved in media (2 μl+200 μl). After compounds were dissolved in media, media containing compounds were warmed to 37° C. in incubator and then compounds in media were added to cell plates (50 μl+50 μl) in duplicates. The compounds' final concentrations were from […] to 19.9 nM. All compound solubilities were checked and recorded again, then the plates were transferred to CO2 tissue culture incubator immediately and incubated for 3 days. DMSO final concentration is 0.5%.

A further test relates to MiaPaCa-2. Nature of the test: CellTiterGlo viability assay, MiaPaCa-2. As to conditions: for pIC50: read-out: IC50 MiaPaCa-2. On the procedure:
as §1

Another test concerns Murine leukemia L1210. The test can be described thus: Cell proliferation (Coulter count) assay, L1210. The note with it: Mus musculus, 48 h, read-out: absolute IC50, L1210. In outline: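 Cells grown in DMEM with 10% FBS. HeLa seeded at 10 000 cells/well, compound added after 24 h, counted day 5; L1210 and CEM seeded at 60 000 cells/well with compound, counted after 48 h and 72 h respectively. IC50 is concentration halving proliferation by Coulter count.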

In another test the test system is KG-1. The test can be described thus: CellTiterGlo viability assay, KG-1. As to conditions: Homo sapiens, read-out: IC50 KG-1. In outline: (§2)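 CTG luminescence read-out after ~72 h compound exposure; 9 pts, 3.16-fold dilution, top final 198 μM, bottom 19.9 nM; duplicates; 0.5% DMSO final; 37 °C CO2 incubator.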
The subject of test [1] is KG1a leukaemic stem cell compartment (Lin−/CD34+/CD38−/CD123+). Nature of the test: Leukaemic stem cell compartment in KG1a. As to conditions: for Change relative to control (%): % LSC compartment versus the series' control; for KG-1a (CD34+/CD38−/CD123+) % compartment: LSC as percentage of viable cells left, 72 hrs; for targeting of leukaemic/cancer stem cells in words: KG1a, compared to 8-chloroadenosine (FIG. 2, FIG. 8).

In another test the test system is HEL92.1.7. Nature of the test: CellTiterGlo viability assay, HEL92.1.7. As to conditions: for pIC50: read-out: IC50 HEL92.1.7. In a few lines:
as §2

A further test relates to MCF7. The test can be described thus: CellTiterGlo viability assay, MCF7. As to conditions: for pIC50: read-out: IC50 MCF7. On the procedure: as §1
The subject of the next test is MV4-11. The test can be described thus: CellTiterGlo viability assay, MV4-11. As to conditions: Homo sapiens, read-out: IC50 MV4-11. In a few lines:
as §2

Setting [2] is: Homo sapiens, MIA PaCa-2, CellTiterGlo, 72 hrs.
The mark [3] stands for this setting: Homo sapiens, HEL 92.1.7, CellTiterGlo, 72 hrs.
Where [4] appears, read: Homo sapiens, MCF7, CellTiterGlo, 72 hrs.

pIC50: −log10 of the molar value. Read-outs that look alike come from different tables or passages of the source.

This note sets out measurements from US20190375778A1, “ADENOSINE DERIVATIVES FOR USE IN THE TREATMENT OF CANCER” (NuCana plc, priority 2016, published 2019).

For the compound `C[C@H](NP(=O)(OC[C@H]1O[C@@H](n2c(Cl)nc3c(N)ncnc32)C(O)C1O)Oc1cccc2ccccc12)C(=O)OCc1ccccc1` (stereo partly drawn) [Compound D, (2S)-Benzyl 2-(((((2R,3S,4R,5R)-5-(6-amino-8-chloro-9H-purin-9-yl)-3,4-dihydroxy-tetrahydrofuran-2-yl)methoxynaphthalene-1-yloxy)phosphoryl)amino)propanoate], the pIC50 with THP-1 (THP-1, 72 h) was 5.30 to 7.00; in the test on MiaPaCa-2 (Homo sapiens, MIA PaCa-2, 72 h), 5.30 to 7.00; in the test with Murine leukemia L1210, 4.82 to 5.30; in the test with KG-1 (KG-1, 72 h) it was 4.82 to 5.30; in the test with HEL92.1.7 (Homo sapiens, HEL 92.1.7, 72 h), 5.30 to 7.00; in the test with MCF7 (Homo sapiens, MCF7, 72 h) it was 5.30 to 7.00. The pIC50 in the test with MV4-11 (MV4-11, 72 h) is 5.30 to 7.00. Also, in test [1], the “Change relative to control (%)” value is on record as −0.8%. Moreover, the “KG-1a (CD34+/CD38−/CD123+) % compartment” value in test [1] worked out at 2.5%.
Consider `C[C@H](NP(=O)(OC[C@H]1O[C@@H](n2c(Cl)nc3c(N)ncnc32)[C@H](O)[C@@H]1O)Oc1ccccc1)C(=O)OCc1ccccc1` (mixture of isomers) [C, (2S)-Benzyl 2-(((((2R,3S,4R,5R)-5-(6-amino-8-chloro-9H-purin-9-yl)-3,4-dihydroxy-tetrahydrofuran-2-yl)methoxy)(phenoxy)phosphoryl)amino)propanoate], for which the pIC50 in the test on THP-1 (THP-1, 72 h) was 4.00 to 4.82; with MiaPaCa-2 (Homo sapiens, MIA PaCa-2, 72 h), 4.82 to 5.30; with Murine leukemia L1210, 4.00 to 4.82; in the test on KG-1 (KG-1, 72 h), under 4.00; in the test with HEL92.1.7 (Homo sapiens, HEL 92.1.7, 72 h), 4.00 to 4.82; in the test with MCF7 (Homo sapiens, MCF7, 72 h) it was 4.00 to 4.82. In addition, the pIC50 with MV4-11 (MV4-11, 72 h) is 5.30 to 7.00. In test [1], the “KG-1a (CD34+/CD38−/CD123+) % compartment” value is 3.3%.
Take `Nc1ncnc2c1nc(Cl)n2[C@@H]1O[C@H](COP(=O)(NCC(=O)OCc2ccccc2)Oc2ccccc2)[C@@H](O)[C@H]1O` (mixture of isomers) [Compound B, Benzyl 2-(((((2R,3S,4R,5R)-5-(6-amino-8-chloro-9H-purin-9-yl)-3,4-dihydroxytetra-hydrofuran-2-yl)methoxy)(phenoxy)phosphoryl)amino)acetate]: the pIC50 was 5.30 to 7.00 in the test with THP-1 (THP-1, 72 h); 5.30 to 7.00 with MiaPaCa-2 (Homo sapiens, MIA PaCa-2, 72 h); 4.82 to 5.30 in the test on Murine leukemia L1210; 5.30 to 7.00 in the test with KG-1 (KG-1, 72 h); 5.30 to 7.00 in the test on HEL92.1.7 (Homo sapiens, HEL 92.1.7, 72 h); 5.30 to 7.00 with MCF7 (Homo sapiens, MCF7, 72 h). In the test with MV4-11 (MV4-11, 72 h), the pIC50 was 5.30 to 7.00. In addition, the “targeting of leukaemic/cancer stem cells in words” value in test [1] is “particularly effective preferential targeting of LSCs”. The “KG-1a (CD34+/CD38−/CD123+) % compartment” value in test [1] is recorded as 2.7%.
In the case of `Nc1ncnc2c1nc(Cl)n2[C@@H]1O[C@H](CO)[C@@H](O)[C@H]1O` [8-chloroadenosine, 8-Chloroadenosine, reference compound], the pIC50 is 5.30 to 7.00 in the test on THP-1 (THP-1, CellTiterGlo, 72 hrs); 5.30 to 7.00 in the test with MiaPaCa-2 (setting [2]); 5.30 to 7.00 in the test with Murine leukemia L1210; 5.30 to 7.00 in the test on KG-1 (KG-1, CellTiterGlo, 72 hrs); 5.30 to 7.00 with HEL92.1.7 (setting [3]); 5.30 to 7.00 in the test with MCF7 (setting [4]). Moreover, the pIC50 in the test on MV4-11 (MV4-11, CellTiterGlo, 72 hrs) was 5.30 to 7.00. Besides, the “Top in. % MiaPa-Ca-2” value in the test with MiaPaCa-2 is 86.2%. The EC50 in the test on MiaPaCa-2 (Homo sapiens, MIA PaCa-2, read-out: Ab EC50 (μM) MiaPa-Ca-2) worked out at 0.44 µM; in the test on HEL92.1.7 (Homo sapiens, HEL 92.1.7, read-out: Ab EC50 (μM) HEL92.1.7) it was 2.2 µM; with MCF7 (Homo sapiens, MCF7, read-out: Ab EC50 (μM) MCF7), 1.33 µM. Also, in test [1], the “Change relative to control (%)” value is on record as “+0.4%”. Further, the “KG-1a (CD34+/CD38−/CD123+) % compartment” value in test [1] came out at 3.7%. Moreover, the “Top in. % HEL92.1.7” value in the test with HEL92.1.7 is given as 96.4%. Moreover, the “Top in. % MCF7” value in the test on MCF7 was found to be 79.6%.
As for `Nc1ncnc2c1nc(Cl)n2[C@@H]1O[C@H](COP(=O)(NCC(=O)OC2CCCCC2)Oc2ccccc2)[C@@H](O)[C@H]1O` (mixture of isomers) [Compound A, Cyclohexyl 2-(((((2R,3S,4R,5R)-5-(6-amino-8-chloro-9H-purin-9-yl)-3,4-dihydroxy-tetrahydrofuran-2-yl)methoxy)(phenoxy)phosphoryl)amino)acetate], the pIC50 in the test with THP-1 (THP-1, 72 h) is 4.00 to 4.82; with MiaPaCa-2 (Homo sapiens, MIA PaCa-2, 72 h) it was 4.82 to 5.30; in the test with Murine leukemia L1210, 4.00 to 4.82; with KG-1 (KG-1, 72 h) it was under 4.00; in the test with HEL92.1.7 (Homo sapiens, HEL 92.1.7, 72 h), 4.82 to 5.30; in the test with MCF7 (Homo sapiens, MCF7, 72 h), 4.00 to 4.82. For the same compound, in the test on MV4-11 (MV4-11, 72 h), the pIC50 is 5.30 to 7.00.
Regarding `CC(C)C[C@H](NP(=O)(OC[C@H]1O[C@@H](n2c(Cl)nc3c(N)ncnc32)C(O)C1O)Oc1ccccc1)C(=O)OCc1ccccc1` (stereo partly drawn) [V, 5′-([(Benzyloxy-L-leucin-N-yl)-phenyl]-phosphatyl) 8-chloroadenosine], the pIC50 with THP-1 (THP-1, 72 h) is 5.30 to 7.00; in the test on MiaPaCa-2 (Homo sapiens, MIA PaCa-2, 72 h) it was 5.30 to 7.00; in the test with Murine leukemia L1210, 4.00 to 4.82; in the test on KG-1 (KG-1, 72 h) it was 4.82 to 5.30; in the test with HEL92.1.7 (Homo sapiens, HEL 92.1.7, 72 h) it was 5.30 to 7.00; in the test on MCF7 (Homo sapiens, MCF7, 72 h), 5.30 to 7.00. Besides, the pIC50 in the test with MV4-11 (MV4-11, 72 h) was 5.30 to 7.00.
`CCCCCOC(=O)[C@H](C)NP(=O)(OC[C@H]1O[C@@H](n2c(Cl)nc3c(N)ncnc32)C(O)C1O)Oc1cccc2ccccc12` (stereo partly drawn) [Compound E, (2S)-Pentyl 2-(((((2R,3S,4R,5R)-5-(6-amino-8-chloro-9H-purin-9-yl)-3,4-dihydroxy-tetrahydrofuran-2-yl)methoxnaphthalene-1-yloxy)phosphoryl)amino)propanoate]: the pIC50 with THP-1 (THP-1, 72 h) is 5.30 to 7.00; in the test with MiaPaCa-2 (Homo sapiens, MIA PaCa-2, 72 h), 5.30 to 7.00; in the test on Murine leukemia L1210, 4.82 to 5.30; in the test on KG-1 (KG-1, 72 h), 5.30 to 7.00; with HEL92.1.7 (Homo sapiens, HEL 92.1.7, 72 h), 5.30 to 7.00; in the test on MCF7 (Homo sapiens, MCF7, 72 h) it was 5.30 to 7.00. The pIC50 in the test on MV4-11 (MV4-11, 72 h) is 5.30 to 7.00. In test [1], the “KG-1a (CD34+/CD38−/CD123+) % compartment” value was 3.5%.
As for `Nc1ncnc2c1nc(Cl)n2[C@@H]1O[C@H](COP(=O)(NCC(=O)OCc2ccccc2)NCC(=O)OCc2ccccc2)C(O)C1O` (some centres unmarked) [Compound AC, 8-Chloroadenosine 5′-O-bis(benzyloxy-glycin-N-yl) phosphate], the pIC50 is 5.30 to 7.00 with THP-1 (THP-1, CellTiterGlo, 72 hrs); 5.30 to 7.00 in the test on MiaPaCa-2 (setting [2]); 5.30 to 7.00 in the test on Murine leukemia L1210; 5.30 to 7.00 in the test on KG-1 (KG-1, CellTiterGlo, 72 hrs); 5.30 to 7.00 in the test on HEL92.1.7 (setting [3]); 5.30 to 7.00 in the test with MCF7 (setting [4]). Also, in the test with MV4-11 (MV4-11, CellTiterGlo, 72 hrs), the pIC50 was 5.30 to 7.00. Also, the “targeting of leukaemic/cancer stem cells in words” value in test [1] is reported as “no evidence of a capacity to target cancer stem cells”.
